Results reported in US10450260B2, “NO- and H2S-releasing compounds” (RESEARCH FOUNDATION OF THE CITY UNIVERSITY OF NEW YORK, priority 2011, dated 2019).
Values joined by “and” are separate entries in the source; they are usually repeats but may differ in a detail not shown here. Equal values may be shown once. Read-outs that look alike come from different tables or passages of the source.

Key:
[1] = test system: HT-29 human colon cancer cells; test: MTT cell growth inhibition, HT-29; assay type: cell-based; settings: for IC50: Homo sapiens; for Ratio NSAID/NOSH-NSAID, HT-29: fold-enhancement in potency over the parent compound
Procedure: HT-29, SW-480 and HCT-15 human colon adenocarcinoma, MIA PaCa-2 and BxPC-3 human pancreatic cancer, LNCAP human prostate cancer, A549 human lung cancer, MCF-7 (estrogen receptor positive), MDA-MB 231 and SK-BR-3 (estrogen receptor negative) human breast cancer, and Jurkats human leukemia cell lines were obtained from American Type Tissue Collection (Manassas, Va.). All cells lines were grown as monolayers except for the Jurkats which were grown in suspension. The pancreatic and breast cancer cells were grown in Dulbecco's modified Eagle's medium, the prostate, Jurkat, SW-480 and HCT-15 colon cells were grown in RPMI 1640 medium, the lung cells were grown in F-12 and the colon HT-29 cells were grown in McCoy 5A. All media were supplemented with 10% fetal calf serum (Invitrogen, Carlsbad, Calif.) penicillin (50 U/ml), and streptomycin (50 μg/ml) (Invitrogen, Carlsbad, Calif.). Cells were seeded on culture dishes at a density of 25×10^3 cells/cm^2 and incubated at 37° C. in 5% CO2 and 90% relative humidity. Single cell suspensions were obtained by trypsinization (0.05% trypsin/EDTA), and cells were counted using a hemocytometer. Viability was determined by the trypan blue dye exclusion method.
Cell growth inhibitory effect of NOSH compounds were measured using a colorimetric MTT assay kit (Roche, Indianapolis, Ind.). Cancer cells were plated in 96-well plates at a density of 50,000 cells/well. The cells were incubated for 24 h with different concentrations of NOSH compounds. After the indicated time, 10 μl of MTT dye (3-[4,5-dimethylthiazol-2-yl]-2,5-diphenyl tetrazolium bromide, 5 mg/ml in phosphate buffered saline), was added to each well, and the plates were incubated for 2 hours at 37° C. Then, the media was aspirated, and add 100 μl of the solubilization solution (10% SDS in 0.01 M HCl) was added to each well to solubilize the formant crystals. The absorbance of the plates was measured on an ELISA reader at a wavelength of 570 nm. Each sample was performed in triplicate, and the entire experiment was repeated three times.
HT-29 human colon cancer cells were obtained from American Type Tissue Collection (Manassas, Va.) and grown as monolayer in McCoy 5A media that was supplemented with 10% fetal calf serum (Invitrogen, Carlsbad, Ca.), penicillin (50 U/ml), and streptomycin (50 μg/ml) (Invitrogen, Carlsbad, Calif.).
Growth inhibition was measured using a colorimetric MTT assay kit (Roche, Indianapolis, Ind.). Proliferation (PCNA) was assessed using an ELISA kit from Calbiochem, (La Jolla, Calif.). Cell cycle phase distributions and apoptosis of control and treated cells were determined as previously described. All methods are described in Chattopadhyay et al., Biochemical Pharmacology, 2012, 83(6), 715-722.
HT-29, SW-480 and HCT-15 human colon adenocarcinoma, MIA PaCa-2 and BxPC-3 human pancreatic cancer, LNCAP human prostate cancer, A549 and H383 human lung cancer, MCF-7, MDA-MB 231 and SK-BR-3 human breast cancer and Jurkat T cell human leukemia cell lines were obtained from American Type Tissue Collection (Manassas, Va.) All cells lines were grown as monolayers except for the Jurkat T cells which were grown as suspension culture. The pancreatic and breast cancer cells were grown in Dulbecco's modified Eagle's medium, the prostate, Jurkat, SW-480 and HCT-15 colon cells were grown in RPMI 1640 medium, the lung cells were grown in F-12 and the colon HT-29 cells were grown in McCoy 5A. All media were supplemented with 10% fetal calf serum (Invitrogen, Carlsbad, Calif.) penicillin (50 U/ml), and streptomycin (50 μg/ml) (Invitrogen, Carlsbad, Calif.). Cells were seeded on culture dishes at a density of 25×10^3 cells/cm^2 and incubated at 37° C. in 5% CO2 and 90% relative humidity. Single cell suspensions were obtained by trypsinization (0.05% trypsin/EDTA), and cells were counted using a hemacytometer. The final DMSO concentration was adjusted in all media to 1%. Viability was determined by the trypan blue dye exclusion method. […]

ovine COX-1 = molecular target: T1, ovine COX-1 (Ovis aries, UniProt P05979); test: COX-1 enzyme activity, colorimetric inhibitor screening kit; assay type: biochemical; settings: for preference between COX-1 and COX-2 enzyme inhibition: ovine COX-1 vs COX-2
T1 construct: purchased Cayman Chemicals (Ann Arbor, Mich.)
T1 sequence (P05979 25-600): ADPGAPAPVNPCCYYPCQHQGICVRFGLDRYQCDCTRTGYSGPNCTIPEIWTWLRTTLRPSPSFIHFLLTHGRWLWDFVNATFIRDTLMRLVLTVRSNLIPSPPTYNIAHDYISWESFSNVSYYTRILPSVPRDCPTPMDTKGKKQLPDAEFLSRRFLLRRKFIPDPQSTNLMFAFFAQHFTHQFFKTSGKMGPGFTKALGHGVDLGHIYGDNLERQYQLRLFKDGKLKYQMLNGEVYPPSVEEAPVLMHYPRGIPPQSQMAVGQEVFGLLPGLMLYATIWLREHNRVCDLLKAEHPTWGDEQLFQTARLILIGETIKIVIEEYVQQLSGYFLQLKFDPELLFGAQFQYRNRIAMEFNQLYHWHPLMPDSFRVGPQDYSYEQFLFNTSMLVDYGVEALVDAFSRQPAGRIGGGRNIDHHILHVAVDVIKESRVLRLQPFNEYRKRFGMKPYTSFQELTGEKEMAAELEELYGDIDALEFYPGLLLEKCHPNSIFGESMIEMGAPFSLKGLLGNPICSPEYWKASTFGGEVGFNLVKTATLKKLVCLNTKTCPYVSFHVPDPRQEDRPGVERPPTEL

[2] = HT-29, 24 h (Table 5), in combinations the IC50 of ASA with fixed concentrations of SNAP and/or ADT-OH, read-out: IC50 at 24 hours for HT-29 cell growth inhibition
[3] = HT-29 cells, 24 h, read-out: IC50, 24 h
[4] = HT-29 colon cancer cells, 24 hours (Table 3), read-out: IC50 at 24 hours for cell growth inhibition
[5] = HT-29, 24 hours, read-out: IC50 for cell growth inhibition, Colon HT-29
[6] = HT-29, 24 hours (Table 7), read-out: IC50 for cell growth inhibition, Colon HT-29

In the case of `CC(=O)Oc1ccccc1C(=O)O` [ASA, aspirin, reference compound], the IC50 [1, 2] is reported as > 1000 µM, the IC50 [1, 3] is reported as > 5000 µM and the IC50 [1, 4] is reported as > 5000 µM. For the same compound, the “COX-1, % Inhibition” value (ovine COX-1; 1 mM (Table 6)) was 53.2±1.8%, the “COX 1-% Inhibition” value (ovine COX-1; 1 mM, 15 min at 4° C. (Table 8)) was 84.9% and 85.9% and the “COX 1-% Inhibition” value (ovine COX-1; 3 mM (Table 8)) was 86.5%.

`O=C(CCCO[N+](=O)[O-])Oc1ccccc1C(=O)Oc1ccc(-c2cc(=S)ss2)cc1` [NOSH-1, 4-(3-thioxo-3H-1,2-dithiol-5-yl)phenyl 2-((4-(nitrooxy)butanoyl)oxy)benzoate] was tested, and the “potency of intact NOSH-1 over the combination ASA plus SNAP and ADT-OH” value ([1]; HT-29, 24 h) was “approximately 9000 fold”, the “Potency enhancement (ratio of IC50 values ASA/NOSH-1), 24 h” value ([1]; HT-29 cells, 24 h) was >100,000 fold and the IC50 [1, 5] was 0.048 ± 0.003 µM. It also gave an IC50 [1, 2] of 0.05 ± 0.005 µM, an IC50 [1, 3] of 0.0455 ± 0.0025 µM and an IC50 [1, 4] of 0.05 ± 0.003 µM. For the same compound, the inhibition at 0.025 µM (ovine COX-1; 25 nM (Table 6)) was 8.3 ± 1%, the inhibition at 0.05 µM (ovine COX-1; 50 nM (Table 6)) was 45.2 ± 2% and the inhibition at 0.05 µM (ovine COX-1; 50 nM (Table 8)) was 52.6%. For the same compound, the “COX 1-% Inhibition” value (ovine COX-1; 50 nM (Table 8), listed as NOSH-ASA, 0.05 µM) was 47.6%, the inhibition at 0.1 µM (ovine COX-1; 100 nM (Table 6)) was 69.4 ± 2.2% and the inhibition at 0.1 µM (ovine COX-1; 100 nM (Table 8)) was 67.9%. The “preference between COX-1 and COX-2 enzyme inhibition” value (ovine COX-1) was “preferentially inhibits COX-1”.

For `O=C(CCC(=O)Oc1ccccc1C(=O)Oc1ccc(-c2cc(=S)ss2)cc1)OCCCCO[N+](=O)[O-]` [NOSH-2, 4-(nitrooxy)butyl (2-((4-(3-thioxo-3H-1,2-dithiol-5-yl)phenoxy)carbonyl)phenyl) succinate], the IC50 [1, 5] was 0.08 ± 0.005 µM.

For `NC(=S)c1ccc(OC(=O)c2ccccc2OC(=O)CCCO[N+](=O)[O-])cc1` [NOSH-3, 4-carbamothioylphenyl 2-((4-(nitrooxy)butanoyl)-oxy)benzoate], the IC50 [1, 5] was 7.5 ± 0.355 µM.

`O=C(CCCC[C@@H]1CCSS1)Oc1ccccc1C(=O)OCCCCO[N+](=O)[O-]` [NOSH-4, (R)-4-(nitrooxy)butyl 2-((5-(1,2-dithiolan-3-yl)pentanoyl)oxy)benzoate] gave an IC50 [1, 5] of 0.3 ± 0.035 µM.

In the case of `CC(C(=O)Oc1ccc(-c2cc(=S)ss2)cc1)c1ccc2cc(OC(=O)CCCO[N+](=O)[O-])ccc2c1` (centres unmarked) [NOSH-7, 6-(1-oxo-1-(4-(3-thioxo-3H-1,2-dithiol-5-yl)phenoxy)propan-2-yl)naphthalen-2-yl 4-(nitrooxy)butanoate], the IC50 [1, 6] is reported as 0.08 µM, the “Ratio NSAID/NOSH-NSAID, HT-29” value [1] is reported as 34,687 and the inhibition at 0.08 µM (ovine COX-1; 80 nM (Table 8)) is reported as 42.5%. The “COX 1-% Inhibition” value (ovine COX-1; 80 nM (Table 8), listed as NOSH-NAPROXEN, 0.08 µM) was 44.4%, the inhibition at 0.16 µM (ovine COX-1; 160 nM (Table 8)) was 52.3% and the “preference between COX-1 and COX-2 enzyme inhibition” value (ovine COX-1) was “preferentially inhibited COX-1”.

With `CC1=C(CC(=O)Oc2ccc(OC(=O)CCCO[N+](=O)[O-])c(C(=O)Oc3ccc(-c4cc(=S)ss4)cc3)c2)c2cc(F)ccc2/C1=C/c1ccc([S+](C)[O-])cc1` (centres unmarked) [NOSH-8, (E)-4-(3-thioxo-3H-1,2-dithiol-5-yl)phenyl 5-(2-(5-fluoro-2-methyl-1-(4-(methylsulfinyl)benzylidene)-1H-inden-3-yl)acetoxy)-2-((4-(nitrooxy)butanoyl)oxy)benzoate] the IC50 [1, 6] was 0.089 µM, the “Ratio NSAID/NOSH-NSAID, HT-29” value [1] was 8,988 and the inhibition at 0.089 µM (ovine COX-1; 89 nM (Table 8)) was 43.4%. The “COX 1-% Inhibition” value (ovine COX-1; 89 nM (Table 8), listed as NOSH-SULINDAC, 0.089 µM) was 45.0% and the “preference between COX-1 and COX-2 enzyme inhibition” value (ovine COX-1) was “preferentially inhibited COX-1”.

`COc1ccc2cc([C@H](C)C(=O)O)ccc2c1` [naproxen, reference compound] was tested, and the IC50 [1, 6] was 2780 µM, the “COX 1-% Inhibition” value (ovine COX-1; 3 mM (Table 8)) was 80.1% and the inhibition at 3000 µM (ovine COX-1; read-out: COX 1-% Inhibition, 3 mM (Table 8)) was 84.7%. The inhibition at 6000 µM (ovine COX-1; read-out: COX 1-% Inhibition, 6 mM (Table 8)) was 91.9%.

With `CC1=C(CC(=O)O)c2cc(F)ccc2/C1=C\c1ccc([S+](C)[O-])cc1` (centres unmarked) [sulindac, reference compound] the IC50 [1, 6] was 800 µM, the inhibition at 800 µM (ovine COX-1; 800 μM (Table 8)) was 84% and the “COX 1-% Inhibition” value (ovine COX-1; 800 μM (Table 8), 800 µM) was 81.0%. It also gave an inhibition at 1600 µM (ovine COX-1; 1600 μM (Table 8)) of 89.1%.
